Assay results: article PMC8973283, “First-in-Humans Evaluation of a PD-L1–Binding Peptide PET Radiotracer in Non–Small Cell Lung Cancer Patients” (Journal of Nuclear Medicine, 2022)
Each block holds one compound with its values, some of them ahead of it.

Experiments:
NSCLC lesions [1] = settings: human, in vivo
Description: Patients were injected intravenously with ^68Ga-NOTA-WL12 (1.9–3.7 MBq/kg). To determine the optimal peptide dose required to obtain high-contrast images, an escalated nonradiolabeled WL12 mass dose was coadministered with the imaging agent. The first 2 patients received 0 μg, the next 3 received 5 ug, then 60 ug, and the final group of 3 received 120 μg. […] The first patient underwent a dynamic scan at 6 time points in 1 h. The remaining 8 patients underwent PET/CT at 1 h after injection, and 6 of those were also scanned at 2 h after injection (2 patients were unable to tolerate the full 2-h examination). […] Images were reconstructed with ordered-subset expectation maximization. […] CT data were used to correct the PET images for attenuation. Vital signs, laboratory studies, and electrocardiograms were obtained before injection, during the screening period, and 2 d after PET/CT.
Images were analyzed by 2 experienced nuclear medicine physicians. […] To compare the uptake differences between the liver, spleen, small intestine (SI), and kidney among patients coadministered with different doses of WL12, multisite measurement was applied, and the uptake was calculated as an average of the number of patients corresponding to different dose administrations separately (Supplemental Fig. 3). […]

NSCLC lesions [2] = settings: human, in vivo; cited from earlier work
PD-L1 (CHO-hPD-L1 cells) = molecular target: T1, PD-L1 (CHO-hPD-L1 cells) (Homo sapiens, UniProt Q9NZQ7); assay: In vitro cellular uptake in CHO-hPD-L1 versus CHO cells; format: cell-based; settings: CHO-hPD-L1 vs CHO cells
T1 construct: expressed in transfected cells
Text: The Chinese hamster ovary (CHO) cell line was obtained from American Type Culture Collection. A CHO cell line with constitutive PD-L1 expression (CHO-hPD-L1) was generated in our laboratory and described previously ([23]). Details of the cell culture, flow cytometry analysis for PD-L1 expression, and in vitro assays are provided in the supplemental materials.

CHO tumors = assay: Small-animal PET of NOD/SCID mice bearing negative control CHO tumors; format: in vivo
[3] = Radiation dosimetry in patients (OLINDA/EXM); format: in vivo, human; settings: administered dose 224 ± 37 MBq, n = 4
Description: Data from 4 patients with 120 μg of coinjected WL12 were used for ^68Ga-NOTA-WL12 dosimetry analysis, and the heart contents, lungs, liver, spleen, pancreas, kidneys, uterus, urinary bladder contents, and body remainder were selected as source organs. The volumes of the source organs manually drawn on CT images were calculated, and their mean counts/mL (kBq/mL) were determined from PET images at 1 and 2 h time points. Dosimetry was estimated using OLINDA/EXM software (version 2.0; Hermes Medical Solutions AB). Detailed procedures are provided in the supplemental materials.

[4] = Clinical safety monitoring after PET/CT; format: in vivo, human
Description: Patients were injected intravenously with ^68Ga-NOTA-WL12 (1.9–3.7 MBq/kg). To determine the optimal peptide dose required to obtain high-contrast images, an escalated nonradiolabeled WL12 mass dose was coadministered with the imaging agent. The first 2 patients received 0 μg, the next 3 received 5 ug, then 60 ug, and the final group […] received 120 μg. […] The first patient underwent a dynamic scan at 6 time points in 1 h. The remaining 8 patients underwent PET/CT at 1 h after injection, and 6 of those were also scanned at 2 h after injection (2 patients were unable to tolerate the full 2-h examination). […] Images were reconstructed with ordered-subset expectation maximization. CT reconstruction used a standard method with a 512 × 512 matrix and a layer thickness of 3–5 mm. CT data were used to correct the PET images for attenuation. Vital signs, laboratory studies, and electrocardiograms were obtained before injection, during the screening period, and 2 d after PET/CT.

in vivo = settings: NOD/SCID, mouse, iv, 7.4 MBq (~0.17 ug), total radioactivity
CHO-hPD-L1 tumors = assay: Small-animal PET of NOD/SCID mice bearing CHO-hPD-L1 tumors; settings: 50 μg blocking dose coinjected
[5] = First-in-human PET/CT in advanced NSCLC patients: tumor uptake and biodistribution; settings: human, iv
Description: (§1) Patients were injected intravenously with ^68Ga-NOTA-WL12 (1.9–3.7 MBq/kg). To determine the optimal peptide dose required to obtain high-contrast images, an escalated nonradiolabeled WL12 mass dose was coadministered with the imaging agent. The first 2 patients received 0 μg, the next 3 received 5 ug, then 60 ug, and the final group of 3 received 120 μg. […] The first patient underwent a dynamic scan at 6 time points in 1 h. The remaining 8 patients underwent PET/CT at 1 h after injection, and 6 of those were also scanned at 2 h after injection (2 patients were unable to tolerate the full 2-h examination). […] Images were reconstructed with ordered-subset expectation maximization. CT reconstruction used a standard method with a 512 × 512 matrix and a layer thickness of 3–5 mm. CT data were used to correct the PET images for attenuation.
(§2) Images were analyzed by 2 experienced nuclear medicine physicians. The uptake parameters of major organs, tissues, and lesions were obtained to determine the organ biodistribution. SUVlean (SUL) was obtained by standardizing SUV to the body mass, which is less dependent on body habitus ([24]). […] Accordingly, we used SULmean and percentage of injected activity to describe radiopharmaceutical uptake in normal organs. To compare the uptake differences between the liver, spleen, small intestine (SI), and kidney among patients coadministered with different doses of WL12, multisite measurement was applied, and the uptake was calculated as an average of the number of patients corresponding to different dose administrations separately (Supplemental Fig. 3). To analyze normal organ uptake at different time points, 6 patients with 1- and 2-h imaging were involved. The maximum, peak, and mean values of SUV and SUL in biopsied lesions were obtained and used to correlate with PD-L1 TPS. Tumor uptake of ^68Ga-NOTA-WL12 higher than that of blood pool (BP) was considered positive.

PD-L1 = PD-L1 (Homo sapiens, UniProt Q9NZQ7); assay: as above
Description: as §1, §2

[6] = tumor versus lung, total radioactivity
[7] = 0, 5, 60, 120 μg WL12 coadministered
[8] = 6 patients with 1- and 2-h imaging

Chain of PD-L1 (Q9NZQ7 19-290): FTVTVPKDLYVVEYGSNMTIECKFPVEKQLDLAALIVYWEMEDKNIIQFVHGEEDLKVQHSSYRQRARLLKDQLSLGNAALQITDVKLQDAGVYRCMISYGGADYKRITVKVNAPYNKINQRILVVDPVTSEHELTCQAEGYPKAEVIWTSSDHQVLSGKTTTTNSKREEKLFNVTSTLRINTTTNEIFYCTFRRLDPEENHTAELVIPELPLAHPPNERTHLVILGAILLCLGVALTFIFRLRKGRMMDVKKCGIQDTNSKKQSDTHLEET
T1 sequence (Q9NZQ7 19-290): as above

Compound: OC[C@H]1OC(O)[C@H]([18F])[C@@H](O)[C@@H]1O (stereo partly drawn) [^18F-FDG]
uptake in tumors (NSCLC lesions [1]): intense
radiation dose of conventional PET/CT (NSCLC lesions [2]): 7.0–14 mSv

cellular uptake in vitro (PD-L1 (CHO-hPD-L1 cells)): PD-L1–specific uptake
tumor uptake in negative control CHO tumors (CHO tumors): minimal uptake
Effective dose per patient [3]: 4.1 mSv
tissue to tissue ratio at 2 h (in vivo; tumor-to-blood-pool uptake (T/BP)): 4.5 ± 0.2
tissue to tissue ratio at 2 h (in vivo; tumor-to-muscle uptake (T/M)): 19.1 ± 1.2
tumor uptake with coinjected blocking dose (in vivo specificity) (CHO-hPD-L1 tumors): decreased
SUV ([5]; blood pool, SUVmax of blood pool (BP), patient 3, before therapy): 1.78 SUV
SUV ([5]; left adrenal metastasis, SUVmax of left adrenal metastasis, patient 9, PD-L1 TPS 80%): 5.47 SUV
SUV ([5]; primary tumor in left lung, SUVmax of primary tumor in left lung, patient 3, PD-L1 TPS 8%): 1.84 SUV
SUV ([5]; primary tumor, SUVmax of primary tumor, patient 9, PD-L1 TPS 80%): 4.87 SUV
SUV ([5]; right sacral metastasis, SUVmax of right sacral metastasis, patient 3, PD-L1 TPS 8%): 0.8 SUV
tissue to tissue ratio at 1 h [5, 6]: 4.45 ± 1.89
tissue to tissue ratio at 2 h [5, 6]: 5.18 ± 2.27
SUV ([5]; tumor, SUVmax of tumor before treatment, patient 1, PD-L1 TPS 8%): 2.21 SUV
SUV ([5]; tumor, SUVmax of tumor before treatment, patient 6, PD-L1 TPS 30%): 3.05 SUV
change of liver uptake with increasing coadministered precursor dose (PD-L1; [7]): decreased
change of small intestine (SI) uptake with increasing coadministered precursor dose (PD-L1; [7]): increased
change of spleen uptake with increasing coadministered precursor dose (PD-L1; [7]): gradual decrease
kidney and BP uptake at 1 h versus mass of WL12 used (PD-L1; 0, 5, 60, 120 μg WL12 coadministered, 1 h): remained similar
change of SI uptake from 1 to 2 h (PD-L1; [8]): significant increase
change of liver uptake from 1 to 2 h (PD-L1; [8]): significant decrease
organ uptake pattern (biodistribution) (PD-L1; NSCLC patients, PET/CT): mainly observed in the SI and liver
Compound: CCCC[C@H]1C(=O)N(C)[C@@H](CCCC)C(=O)N[C@@H](CCCNC(=O)CN2CCN(CC(=O)O)CCN(CC(=O)O)CC2)C(=O)N[C@H](C(=O)NCC(N)=O)CSCC(=O)N[C@@H](Cc2ccc(O)cc2)C(=O)N(C)[C@@H](C)C(=O)N[C@@H](CC(N)=O)C(=O)N2CCC[C@H]2C(=O)N[C@@H](Cc2c[nH]cn2)C(=O)N[C@@H](CC(C)C)C(=O)N2C[C@H](O)C[C@H]2C(=O)N[C@@H](Cc2c[nH]c3ccccc23)C(=O)N[C@@H](CO)C(=O)N[C@@H](Cc2cn(C)c3ccccc23)C(=O)N1C [^68Ga-NOTA-WL12, metal not drawn]
changes in vital signs, laboratory studies, electrocardiograms ([4]; before injection, screening period and 2 d after PET/CT): No significant changes
adverse or pharmacologic effects ([4]; nine PET/CT examinations, 1.9–3.7 MBq/kg i.v.): no adverse or clinically detectable pharmacologic effects
route of clearance (PD-L1; NSCLC patients, from uptake in liver, SI and kidneys): primarily through the hepatobiliary system and secondarily through renal excretion
